Results from patent US20230303495A9, “PYRIDINE OXYNITRIDE, PREPARATION METHOD THEREFOR AND USE THEREOF” (Orion Corporation, priority 2019, published 2023).

Columns and labels:
[1] = In vivo pharmacokinetics of rat, single intravenous injection or oral administration by gavage; parameters: species or system Male Sprague Dawley rats; conditions: male, Sprague-Dawley, plasma; for Vd: read-out: VZ; for bioavailability: intragastric (gavage) 10 mg/kg vs intravenous 1 mg/kg
Method: In this experimental embodiment, the in vivo pharmacokinetics of rat was evaluated by a single intravenous injection or oral administration by gavage.
Experimental methods and conditions: Male Sprague Dawley rats, all animals were fasted overnight, and the test compound was given 1 mg/Kg (intravenous injection, solvent […]) and 10 mg/Kg (administrated by gavage) respectively, 5, 15, 30 min, 1, 2, 4, 6, 8 and 24 hr after administration, blood was collected through the submandibular vein, about 0.20 mL of each sample was collected, heparin sodium was used for anticoagulation, the samples were placed on ice after the collection, then centrifuged within 1 hour to separate the plasma for testing. The blood drug concentration in plasma was detected by liquid-phase tandem mass spectrometry (LC/MS/MS), and the pharmacokinetic parameters were calculated by the measured concentration.

NaV1.8 = target: T1, NaV1.8 (Homo sapiens, UniProt Q9Y5Y9); experiment: Whole-cell patch clamp blocking activity against NaV1.8 channel current; type: cell-based; conditions: for IC50: CHO cell line stably expressing Nav1.8 (SCN10A: NM_006514), patch clamp; for Blocking rate (%) @100 nM: against NaV1.8 at 100 nM, CHO cell line stably expressing Nav1.8, patch clamp
T1 construct: expressed in transfected cells
T1 sequence (Q9Y5Y9 whole entry): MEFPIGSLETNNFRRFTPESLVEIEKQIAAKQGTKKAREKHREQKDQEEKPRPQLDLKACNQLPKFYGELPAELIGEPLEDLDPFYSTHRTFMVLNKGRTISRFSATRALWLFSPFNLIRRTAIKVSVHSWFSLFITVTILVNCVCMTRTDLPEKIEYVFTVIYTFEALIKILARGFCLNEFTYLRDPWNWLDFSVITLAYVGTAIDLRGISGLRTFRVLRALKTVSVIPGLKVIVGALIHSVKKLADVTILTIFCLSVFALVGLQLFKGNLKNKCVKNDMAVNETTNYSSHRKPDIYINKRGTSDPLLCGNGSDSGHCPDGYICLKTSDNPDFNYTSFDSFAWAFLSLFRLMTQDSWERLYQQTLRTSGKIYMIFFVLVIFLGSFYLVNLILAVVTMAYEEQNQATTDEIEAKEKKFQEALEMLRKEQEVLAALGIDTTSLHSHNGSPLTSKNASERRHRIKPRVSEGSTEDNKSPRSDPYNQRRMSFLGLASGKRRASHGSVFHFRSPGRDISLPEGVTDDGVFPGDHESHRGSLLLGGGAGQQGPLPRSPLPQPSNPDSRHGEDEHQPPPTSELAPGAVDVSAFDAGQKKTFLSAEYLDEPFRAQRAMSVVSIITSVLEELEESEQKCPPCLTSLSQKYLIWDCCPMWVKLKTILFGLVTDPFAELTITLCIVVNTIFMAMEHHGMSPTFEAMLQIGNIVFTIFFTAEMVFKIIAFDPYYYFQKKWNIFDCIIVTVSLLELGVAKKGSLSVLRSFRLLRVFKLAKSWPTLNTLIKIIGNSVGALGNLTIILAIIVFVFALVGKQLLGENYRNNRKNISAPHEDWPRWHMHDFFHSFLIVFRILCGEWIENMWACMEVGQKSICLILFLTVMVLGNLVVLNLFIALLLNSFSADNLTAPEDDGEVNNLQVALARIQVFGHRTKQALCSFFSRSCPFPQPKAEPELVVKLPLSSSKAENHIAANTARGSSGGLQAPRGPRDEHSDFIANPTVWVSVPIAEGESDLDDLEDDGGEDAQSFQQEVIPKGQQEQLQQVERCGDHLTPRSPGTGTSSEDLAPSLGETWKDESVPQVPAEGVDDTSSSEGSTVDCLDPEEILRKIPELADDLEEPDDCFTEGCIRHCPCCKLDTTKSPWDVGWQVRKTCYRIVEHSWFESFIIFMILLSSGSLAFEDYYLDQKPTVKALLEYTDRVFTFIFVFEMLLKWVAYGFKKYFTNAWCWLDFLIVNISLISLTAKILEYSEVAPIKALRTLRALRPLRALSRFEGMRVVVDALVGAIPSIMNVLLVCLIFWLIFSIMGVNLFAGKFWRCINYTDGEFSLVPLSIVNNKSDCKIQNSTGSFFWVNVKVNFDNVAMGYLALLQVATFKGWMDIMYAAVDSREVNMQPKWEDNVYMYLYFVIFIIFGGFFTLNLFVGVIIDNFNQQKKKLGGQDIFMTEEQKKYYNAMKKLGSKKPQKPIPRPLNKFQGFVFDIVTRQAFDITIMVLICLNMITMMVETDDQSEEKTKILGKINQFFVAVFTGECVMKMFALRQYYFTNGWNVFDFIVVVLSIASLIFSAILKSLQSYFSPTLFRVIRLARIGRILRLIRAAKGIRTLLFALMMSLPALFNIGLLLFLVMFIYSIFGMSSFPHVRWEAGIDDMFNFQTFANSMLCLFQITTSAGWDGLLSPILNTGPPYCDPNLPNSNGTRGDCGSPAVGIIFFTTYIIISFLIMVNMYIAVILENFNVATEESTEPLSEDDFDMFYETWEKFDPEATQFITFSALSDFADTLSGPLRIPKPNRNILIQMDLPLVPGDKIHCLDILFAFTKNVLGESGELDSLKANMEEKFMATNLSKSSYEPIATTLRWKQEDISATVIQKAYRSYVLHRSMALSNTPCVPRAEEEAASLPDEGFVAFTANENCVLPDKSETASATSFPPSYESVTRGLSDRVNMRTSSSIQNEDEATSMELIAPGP
Method: 1. Test method: patch clamp technique was used to detect the influence of compounds on voltage-gated sodium channel (NaV) 1.1-1.8 subtype current
1) The specific information of the CHO cell line stably expressing the Nav1.8 channel was as follows: SCN10A: NM_006514
2) Cells were cultured in HAM'S/F-12 medium containing 10% fetal bovine serum and 10 μg/mL Blasticidin, 200 μg/mL Hygromycin B and 100 μg/mL Zeocin, culture temperature was 37° C. and the concentration of CO2 was 5%.
5) Patch clamp detection, before the experiment, the cells were separated with 0.25%—trypsin EDTA, inoculated into a 24 well plate with a density of 8*10^3 cells per well (final volume: 500 μL), tetracycline was added thereto, and experimental test was performed on the next day.
1) Extracellular fluid: 140 mM NaCl, 3.5 mM KCl, 2 mM CaCl2, 10 mM HEPES, 1.25 mM NaH2PO4, 1 mM MgCl2, 10 mM Glucose, pH=7.4 (NaOH).
2) Intracellular fluid: 50 mM CsCl, 10 mM NaCl, 10 mM HEPES, 20 mM EGTA, 60 mM CsF, pH=7.2 (CsOH).
The voltage stimulation scheme of whole-cell patch clamp recording of Nav channel current was as follows: first the membrane potential of the cell was clamped at −130 mV, and then the voltage was stepped to −40 mV or −20 mV at 10 mv step intervals for 8 s. The clamping voltage was maintained at −120 mV, and data was collected repeatedly every 20 seconds. The peak amplitude of its inward current was measured to determine its half-inactivation voltage.
The cell clamping potential was set at −120 mV. The resting and half-inactivation inhibition of sodium current was measured using double pulse mode. The double pulse mode was completed by two 0 mV depolarization test pulses (TP1 and TP2) lasting 50 ms. The conditional voltage between the two depolarization pulses was set near the half-inactivation voltage (lasting 8 s). […] The data acquisition was repeated at an interval of 20 s and the current peak was measured at the two test pulses.
When the current of the Nav channel recorded by the whole cell was stable, the drug was administered, after each drug concentration was applied for 5 minutes (or the current was stable), the next concentration would be tested, and multiple concentrations would be tested for each test compound. The cover glass covered with cells was placed in the recording bath of an inverted microscope, the test compound and the external liquid without compound flowed through the recording chambers in turns from low concentration to high concentration by gravity perfusion, so as to act on the cells, in the recording, the liquid exchange was carried out by vacuum pump. The current detected in each cell in the compound-free external fluid served as its own control group. Multiple cells were detected independently and repeatedly. All electrophysiological experiments were performed at room temperature.
First, the current after the action of each drug concentration and the blank control current were normalized, and then the blocking rate corresponding to each drug concentration was calculated. The mean and standard error were calculated for each concentration, and all the above values were calculated by Microsoft Excel 2013. In addition, the half-inhibitory concentration of each compound was calculated by IGOR software with the following equation: retardation rate=1/[1+(IC50/c)^h].
The dose-dependent effect was nonlinearly fitted with the above equation, wherein, c refers to the drug concentration, IC50 was the half inhibitory concentration, and h refers to the Hill coefficient. The curve fitting and the calculation of IC50 were completed by IGOR software (software version: 6.0.1.0).

[2] = intravenous administration 1 mg/kg
[3] = po, intragastric (gavage) 10 mg/kg

AUC(0-inf) [1, 2] [µg·h/mL] | clearance [1, 2] [mL/min/kg] | half-life [1, 2] [h] | Vd [1, 2] [L/kg] | AUC(0-inf) [1, 3] [µg·h/mL] | Cmax [1, 3] [ng/mL] | half-life [1, 3] [h] | bioavailability ([1]; po) [%] | IC50 (NaV1.8) [nM] | Blocking rate (%) @100 nM (NaV1.8) [%] | SMILES
56.7 | 0.3 | 12.3 | 0.312 | 399 | 17100 | 12.2 | 70.4 | 2 |  | O=C(Nc1ccc[n+]([O-])c1)c1cc(Cl)c(C(F)(F)F)cc1Oc1ccc(OC(F)(F)F)cc1 [Embodiment A69]
15.6 | 1.08 | 20.1 | 1.85 | 2930 | 2060 | 915 | 46.8 | 3.1 |  | O=C(Nc1cc[n+](O)nc1)c1c(Oc2ccc(OC(F)(F)F)cc2)ccc(C(F)(F)F)c1F [Embodiment A46]
9.6 | 1.74 | 13.1 | 1.97 | 117 | 3000 | 27.9 | 68.2 | 3.7 |  | O=C(Nc1cc[n+]([O-])nc1)c1c(Oc2ccc(OC(F)(F)F)c(F)c2)ccc(C(F)(F)F)c1F [Embodiment A56]
1.46 | 11.4 | 0.7 | 0.699 | 10.6 | 1330 | 2.51 | 72.6 | 6.2 |  | O=C(Nc1ccc[n+]([O-])c1)c1cc(Cl)c(Cl)cc1Oc1ccc(OC(F)(F)F)cc1 [Embodiment A11]
2.76 | 6.15 | 2.28 | 1.19 | 14 | 1710 | 2.47 | 50.7 |  | 92.47 | Cc1cc(F)ccc1Oc1cc(C(F)(F)F)c(Cl)cc1C(=O)Nc1ccc[n+]([O-])c1 [Embodiment A103]
18.8 | 0.91 | 4.53 | 0.355 | 67.2 | 4920 | 5.75 | 35.7 |  | 99.14 | O=C(Nc1ccc[n+]([O-])c1)c1c(Oc2ccc(OC(F)(F)F)c(F)c2)cc(C(F)(F)F)c(Cl)c1F [Embodiment A84]
33.3 | 0.5 | 5.24 | 0.228 | 139 | 9700 | 5.72 | 41.8 | 0.27 | 99.15 | O=C(Nc1ccc[n+]([O-])c1)c1c(Oc2ccc(OC(F)(F)F)cc2)cc(C(F)(F)F)c(Cl)c1F [Embodiment A68]
 |  |  |  |  |  |  |  | 2.7 |  | Cc1cc(OC(F)(F)F)ccc1Oc1ccc(C(F)(F)F)c(F)c1C(=O)Nc1ccc[n+](O)c1 [Embodiment A51]
 |  |  |  |  |  |  |  | 2.9 |  | O=C(Nc1ccn[n+]([O-])c1)c1c(Oc2ccc(OC(F)(F)F)cc2)ccc(C(F)(F)F)c1Cl [Embodiment A28]
 |  |  |  |  |  |  |  | 1.7 |  | COc1cc(F)ccc1Oc1cc(C(F)(F)F)c(Cl)cc1C(=O)Nc1ccc[n+]([O-])c1 [Embodiment A85]
 |  |  |  |  |  |  |  |  | 87.14 | O=C(Nc1ccc[n+](O)c1)c1c(F)cc(OC(F)(F)F)cc1Oc1ccc(OC(F)(F)F)cc1 [Embodiment A20]
 |  |  |  |  |  |  |  |  | 91.28 | O=C(Nc1ccn[n+]([O-])c1)c1c(Oc2ccc(OC(F)(F)F)cc2)ccc(I)c1F [Embodiment A24]
 |  |  |  |  |  |  |  |  | 82.71 | O=C(Nc1cc[n+]([O-])cc1)c1c(Oc2ccc(OC(F)(F)F)cc2)cnc(C(F)(F)F)c1Cl [Embodiment A102]
 |  |  |  |  |  |  |  |  | 88.88 | O=C(Nc1ccc[n+]([O-])c1)c1c(Oc2ccc(OCC(F)(F)F)cc2)ccc(Br)c1Cl [Embodiment A31]
 |  |  |  |  |  |  |  |  | 79.32 | O=C(Nc1cc[n+]([O-])nc1)c1ccc(C(F)(F)F)cc1Oc1ccc(OC(F)(F)F)c(F)c1 [Embodiment A26]
 |  |  |  |  |  |  |  |  | 97.04 | O=C(Nc1cc[n+]([O-])nc1)c1c(Oc2ccc(OC(F)(F)F)cc2)ccc(I)c1F [Embodiment A23]
 |  |  |  |  |  |  |  |  | 85.63 | O=C(Nc1cc[n+]([O-])nc1)c1c(Oc2ccc(OC(F)F)cc2)ccc(C(F)(F)F)c1F [Embodiment A72]
 |  |  |  |  |  |  |  |  | 93.18 | O=C(Nc1cc[n+]([O-])nc1)c1c(Oc2ccc(OC(F)(F)F)cc2)cnc(C(F)(F)F)c1Cl [Embodiment A65]
 |  |  |  |  |  |  |  |  | 93.84 | O=C(Nc1ccc[n+]([O-])c1)c1cc(Cl)c(C2CC2)cc1Oc1ccc(OC(F)(F)F)cc1 [Embodiment A95]
